Data: patent US8729061B2, “Pyrrolidine derivatives” (Hoffmann-La Roche Inc., priority 2011, dated 2014)
One block for each molecule: values may come before it.

Legend:
Type in all cases: biochemical
human Cat B = human Cat B (Homo sapiens (Human), UniProt P07858); assay: Cathepsin enzyme inhibition assay (fluorogenic peptide substrate), Cat B; details: enzyme 1 nM, substrate Z-Val-Val-Arg-AMC 20 μM, pH 6.5
Protocol: (§1) Enzyme activity is measured by observing the increase in fluorescence intensity caused by cleavage of a peptide substrate containing a fluorophore whose emission is quenched in the intact peptide.
(§2) Assay buffer: 100 mM potassium phosphate pH 6.5, EDTA-Na 5 mM, Triton X-100 0.001%, DTT 5 mM.
(§3) Enzymes (all at 1 nM): human and mouse Cathepsin S, Cat K, Cat B, Cat L. Substrate (20 μM): Z-Val-Val-Arg-AMC, except for Cat K which uses Z-Leu-Arg-AMC (both from Bachem).
(§4) Excitation 360 nm, Emission 465 nm.
(§5) Enzyme is added to the substance dilutions in 96-well microtitre plates and the reaction is started with substrate. […] IC50 are calculated by standard methods. Inhibition of human Cat S, mouse Cat S, human Cat K, mouse Cat K, human Cat B, mouse Cat B, human Cat L and mouse Cat L have been measured separately.

human Cat L = human Cat L (Homo sapiens (Human), UniProt P07711); assay: Cathepsin enzyme inhibition assay (fluorogenic peptide substrate), Cat L; details: enzyme 1 nM, substrate Z-Val-Val-Arg-AMC 20 μM, pH 6.5
Protocol: as §1, §2, §3, §4, §5

human Cathepsin S = human Cathepsin S (Homo sapiens (Human), UniProt P25774); assay: Cathepsin enzyme inhibition assay (fluorogenic peptide substrate), Cat S; details: enzyme 1 nM, substrate Z-Val-Val-Arg-AMC 20 μM, pH 6.5
Protocol: as §1, §2, §3, §4, §5

human Cat K = human Cat K (Homo sapiens (Human), UniProt P43235); assay: Cathepsin enzyme inhibition assay (fluorogenic peptide substrate), Cat K; details: enzyme 1 nM, substrate Z-Leu-Arg-AMC 20 μM, pH 6.5
Protocol: as §1, §2, §3, §4, §5

Sequence of human Cathepsin S (P25774 115-331): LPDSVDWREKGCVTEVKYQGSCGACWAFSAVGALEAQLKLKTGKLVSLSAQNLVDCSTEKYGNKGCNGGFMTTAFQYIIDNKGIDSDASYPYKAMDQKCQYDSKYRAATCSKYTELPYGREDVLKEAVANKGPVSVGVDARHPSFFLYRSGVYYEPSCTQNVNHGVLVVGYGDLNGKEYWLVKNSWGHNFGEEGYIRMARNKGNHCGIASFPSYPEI
Sequence of human Cat L (P07711 114-333): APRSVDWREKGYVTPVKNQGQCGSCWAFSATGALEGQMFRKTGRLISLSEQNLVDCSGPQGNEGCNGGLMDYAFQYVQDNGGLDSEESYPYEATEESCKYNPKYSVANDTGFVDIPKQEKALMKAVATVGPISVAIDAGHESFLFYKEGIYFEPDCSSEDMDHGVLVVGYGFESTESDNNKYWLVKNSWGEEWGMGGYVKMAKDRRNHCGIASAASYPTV
Sequence of human Cat K (P43235 115-329): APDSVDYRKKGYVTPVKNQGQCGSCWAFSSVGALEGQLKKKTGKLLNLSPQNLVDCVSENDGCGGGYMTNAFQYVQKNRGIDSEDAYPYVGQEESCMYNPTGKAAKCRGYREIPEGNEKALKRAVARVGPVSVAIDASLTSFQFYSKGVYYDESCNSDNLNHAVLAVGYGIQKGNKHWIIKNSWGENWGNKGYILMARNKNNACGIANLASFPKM

- IC50 (human Cat B): 350 nM
- IC50 (human Cat L): 16.5 nM
- IC50 (human Cathepsin S): 0.776 nM
- IC50 (human Cat K): 155 nM
Compound: CCCC(C)NC(=O)C(=O)[C@H](CC)NC(=O)[C@@H]1C[C@@H](S(=O)(=O)c2ccccc2Cl)CN1C(=O)C1(c2ccc(Cl)cc2)CC1 (stereo partly drawn) [Example 36, (2S,4R)-1-(1-(4-chlorophenyl)cyclopropanecarbonyl)-4-(2-chlorophenylsulfonyl)-N-((3S)-1,2-dioxo-1-(pentan-2-ylamino)pentan-3-yl)pyrrolidine-2-carboxamide]

- IC50 (human Cat B): 154 nM
- IC50 (human Cat L): 10.6 nM
- IC50 (human Cathepsin S): 0.34 nM
- IC50 (human Cat K): 53.3 nM
Compound: CC[C@H](NC(=O)[C@@H]1C[C@@H](S(=O)(=O)c2ccc(Cl)cc2Cl)CN1C(=O)C1(c2ccc(Cl)cc2)CC1)C(=O)C(=O)NC1CC1 [Example 38, (2S,4R)-1-(1-(4-chlorophenyl)cyclopropanecarbonyl)-N—((S)-1-(cyclopropylamino)-1,2-dioxopentan-3-yl)-4-(2,4-dichlorophenylsulfonyl)pyrrolidine-2-carboxamide]

- IC50 (human Cat B): 140 nM
- IC50 (human Cat L): 11.4 nM
- IC50 (human Cathepsin S): 0.558 nM
- IC50 (human Cat K): 63.6 nM
Compound: CC[C@H](NC(=O)[C@@H]1C[C@@H](S(=O)(=O)c2ccc(F)cc2Cl)CN1C(=O)C1(c2ccc(Cl)cc2)CC1)C(=O)C(=O)NC1CC1 [Example 39, (2S,4R)-4-(2-chloro-4-fluorophenylsulfonyl)-1-(1-(4-chlorophenyl)cyclopropanecarbonyl)-N—((S)-1-(cyclopropylamino)-1,2-dioxopentan-3-yl)pyrrolidine-2-carboxamide]

- IC50 (human Cat B): 108 nM
- IC50 (human Cat L): 13.6 nM
- IC50 (human Cathepsin S): 0.779 nM
- IC50 (human Cat K): 91.8 nM
Compound: CCC[C@H](NC(=O)[C@@H]1C[C@@H](S(=O)(=O)c2ccccc2Cl)CN1C(=O)C1(c2ccc(Cl)cc2)CC1)C(=O)C(=O)NCC [Example 44, (2S,4R)-1-(1-(4-chlorophenyl)cyclopropanecarbonyl)-4-(2-chlorophenylsulfonyl)-N—((S)-1-(ethylamino)-1,2-dioxohexan-3-yl)pyrrolidine-2-carboxamide]

The next lines start with the molecule.

Compound: CCC[C@H](NC(=O)[C@@H]1C[C@@H](S(=O)(=O)c2ccccc2Cl)CN1C(=O)C1(c2ccc(Cl)cc2)CC1)C(=O)C(=O)NCc1ccccc1 [Example 35, (2S,4R)—N—((S)-1-(benzylamino)-1,2-dioxohexan-3-yl)-1-(1-(4-chlorophenyl)cyclopropanecarbonyl)-4-(2-chlorophenylsulfonyl)pyrrolidine-2-carboxamide]
- IC50 (human Cat B): 31 nM
- IC50 (human Cat L): 9.8 nM
- IC50 (human Cathepsin S): 1.21 nM
- IC50 (human Cat K): 21.5 nM

Compound: CCCC(C)NC(=O)C(=O)[C@H](CCC)NC(=O)[C@@H]1C[C@@H](S(=O)(=O)c2ccccc2Cl)CN1C(=O)C1(c2ccc(Cl)cc2)CC1 (stereo partly drawn) [Example 37, (2S,4R)-1-(1-(4-chlorophenyl)cyclopropanecarbonyl)-4-(2-chlorophenylsulfonyl)-N-((3S)-1,2-dioxo-1-(pentan-2-ylamino)hexan-3-yl)pyrrolidine-2-carboxamide]
- IC50 (human Cat B): 246 nM
- IC50 (human Cat L): 15.1 nM
- IC50 (human Cathepsin S): 1.02 nM
- IC50 (human Cat K): 107 nM

Compound: CCC[C@H](NC(=O)[C@@H]1C[C@@H](S(=O)(=O)c2ccccc2Cl)CN1C(=O)C1(c2ccc(Cl)cc2)CC1)C(=O)C(=O)NCC(F)(F)F [Example 40, (2S,4R)-1-(1-(4-chlorophenyl)cyclopropanecarbonyl)-4-(2-chlorophenylsulfonyl)-N—((S)-1,2-dioxo-1-(2,2,2-trifluoroethylamino)hexan-3-yl)pyrrolidine-2-carboxamide]
- IC50 (human Cat B): 366 nM
- IC50 (human Cat L): 29.9 nM
- IC50 (human Cathepsin S): 1.06 nM
- IC50 (human Cat K): 406 nM

Compound: CCC[C@H](NC(=O)[C@@H]1C[C@@H](S(=O)(=O)c2ccccc2Cl)CN1C(=O)C1(c2ccc(Cl)cc2)CC1)C(=O)C(=O)NC(C)C [Example 41, (2S,4R)-1-(1-(4-chlorophenyl)cyclopropanecarbonyl)-4-(2-chlorophenylsulfonyl)-N—((S)-1-(isopropylamino)-1,2-dioxohexan-3-yl)pyrrolidine-2-carboxamide]
- IC50 (human Cat B): 187 nM
- IC50 (human Cat L): 11.7 nM
- IC50 (human Cathepsin S): 0.568 nM
- IC50 (human Cat K): 152 nM
